Assay results reported in paper PMC3757248, “Antiestrogen-binding site ligands induce autophagy in myeloma cells that proceeds through alteration of cholesterol metabolism” (Oncotarget, 2013).

Legend:
RPMI 8226 and LP-1 cells [1] = assay: Cell viability, MTT assay; type: cell-based, human; conditions: 1 μM LY 294002, 10 nM everolimus, 10 μM RU 39411, 40 μM PBPE
Experimental: RPMI 8226 were obtained from R Bataille (CLCC, Nantes, France) and LP-1 cells from D Bouscary (Institut Cochin, Paris, France). At their arrival, the identity of cells was checked by karyotyping and surface markers expression; cells were then amplified and frozen. HMCLs were maintained in RPMI 1640 medium (Lonza, Basel, Switzerland) supplemented with 2 mM L-glutamine (Lonza) and 10% FCS (fetal calf serum) (PAA Laboratories, Velizy-Villacoublay, France). In experiments with AEs, cells were cultured in phenol red-free medium plus FCS. AEs were dissolved in ethanol (EtOH) to obtain 10 mM stock solution and then diluted into medium immediately before use. For controls, vehicle was added at the same final concentration. Cell viability was determined using CellTiter 96® AQueous One Solution (MTT [([3]-([4],[5])-dimethylthiazol-[2]-yl)-[2],[5]-diphenyltetrazolium bromide] assay, Promega, Charbonnières, France) according to the supplier's instructions.

LP-1 cells [2] = assay: Presence of 5,6-EC in cells by GC/MS; type: cell-based, human; conditions: 48 h, 10 μM drug (PBPE 40 μM)
Experimental: (§1) The organic layer was reduced to dryness under a flux of argon and the residue was resuspended in ethanol. Sterols were analyzed by liquid chromatography and gas-liquid chromatography as described before. Neutral lipids and sphingomyelin analyses were done according to previously published procedures.

RPMI 8226 cells [3] = assay: Presence of 5,6-EC in cells by GC/MS; type: cell-based, human; conditions: 48 h, 10 μM drug (PBPE 40 μM)
Experimental: as §1

RPMI 8226 cells [4] = assay: Electron microscopy for MLBs, AVs and UVs; type: cell-based, human; conditions: 48 h, 10 μM drug (PBPE 40 μM)
AEBS [5] = molecular target: T1, AEBS (Homo sapiens, UniProt Q15125+Q9UBM7); assay: Binding to the AEBS in LP1; set-up: endogenous in cells; host or cells: LP-1 human multiple myeloma cell lines
T1 sequence (Q15125 whole entry): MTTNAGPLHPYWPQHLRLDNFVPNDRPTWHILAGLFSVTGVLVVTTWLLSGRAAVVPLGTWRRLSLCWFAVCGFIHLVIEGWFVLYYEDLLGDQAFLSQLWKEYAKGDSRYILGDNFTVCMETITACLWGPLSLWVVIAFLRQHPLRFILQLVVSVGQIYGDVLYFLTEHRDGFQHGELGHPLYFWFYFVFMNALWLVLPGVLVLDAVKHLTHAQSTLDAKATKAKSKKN
T1 sequence (Q9UBM7 whole entry): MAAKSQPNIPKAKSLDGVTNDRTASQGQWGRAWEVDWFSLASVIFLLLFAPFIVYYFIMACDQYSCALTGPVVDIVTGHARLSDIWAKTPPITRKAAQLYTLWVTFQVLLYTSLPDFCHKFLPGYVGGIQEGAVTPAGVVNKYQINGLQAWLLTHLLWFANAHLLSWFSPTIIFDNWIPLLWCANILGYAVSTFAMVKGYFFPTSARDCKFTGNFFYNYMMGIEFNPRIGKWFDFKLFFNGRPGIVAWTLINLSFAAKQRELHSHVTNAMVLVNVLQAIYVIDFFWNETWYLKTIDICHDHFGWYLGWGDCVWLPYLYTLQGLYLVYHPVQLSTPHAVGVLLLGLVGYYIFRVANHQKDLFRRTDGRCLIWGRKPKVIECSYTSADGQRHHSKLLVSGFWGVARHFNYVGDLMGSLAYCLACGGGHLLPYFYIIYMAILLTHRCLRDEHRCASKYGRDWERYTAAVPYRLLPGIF

HMCLs = assay: Free sterol accumulation in HMCLs; type: cell-based, human
Experimental: as §1

LP-1 cells [6] = assay: Sterols accumulated in cells, HPLC and GC/MS; type: cell-based, human; conditions: LP1, 48 h incubation
Experimental: as §1

RPMI 8226 cells [7] = assay: Sterols accumulated in cells, HPLC and GC/MS; type: cell-based, human; conditions: RPMI 8226, 48 h incubation
Experimental: as §1

AEBS [8] = molecular target: T1, AEBS; assay: Binding to the AEBS in RPMI 8226
ChEH [9] = molecular target: T2, ChEH (Homo sapiens, UniProt Q15125+Q9UBM7); assay: ChEH activity in HMCLs (TLC); type: cell-based; set-up: endogenous in cells; host or cells: RPMI 8226 and LP-1 human multiple myeloma cell lines; conditions: for ChEH activity, conversion of 5,6-EC into CT by TLC: OHT, Tam, RU 58668 10 μM, PBPE 40 μM
T2 sequence (Q15125 whole entry): as the sequence (Q15125 whole entry) above
T2 sequence (Q9UBM7 whole entry): as the sequence (Q9UBM7 whole entry) above
Source text: (§2) Cells were then pelleted and extracted with chloroform/methanol (2/1). The organic layer was reduced to dryness under a flux of argon and the residue was resuspended in EtOH. Samples were applied to thin layer chromatography (TLC) plates and developed using ethyl acetate as previously described. The radioactive metabolites were visualized by autoradiography using Kodak Biomax MS films.

ChEH [10] = molecular target: T2, ChEH; assay: ChEH activity measured on intact cells; type: cell-based; set-up: endogenous in cells; host or cells: LP-1 human multiple myeloma cell lines
Source text: as §2

ChEH [11] = molecular target: T2, ChEH; assay: ChEH activity measured on intact cells; type: cell-based; set-up: endogenous in cells; host or cells: RPMI 8226 human multiple myeloma cell lines
Source text: as §2

RPMI 8226 and LP-1 cells [12] = assay: Intracellular free sterol, TG and SM contents; type: cell-based, human; conditions: 5 µM OHT, 20 µM PBPE or 5 µM RU 58668 for three days
Experimental: as §1

LP-1 cells [13] = assay: Electron microscopy for MLBs, AVs and UVs; type: cell-based, human; conditions: 48 h, 10 μM drug (PBPE 40 μM)
RPMI 8226 and LP-1 cells [14] = assay: Degradation of long-lived proteins; type: cell-based, human; conditions: both cell lines, 10 μM OHT, 40 μM PBPE
Experimental: The degradation of long-lived proteins was measured as described previously. Briefly, HMCLs were incubated for 24 h at 37°C with 0.2 μCi/ml of L-[[14]C]valine in complete medium. Cells were then washed resuspended in medium with no nutrients but supplemented with 10 mM valine. After the first h of incubation, the chase medium was replaced by complete medium and the incubation continued for 5 h. […] Radiolabeled proteins present in the chase medium as well as in cells were precipitated with 10% trichloroacetic acid (v/v) at 4°C. Radioactivity was measured by scintillation counting. The rate of protein degradation was calculated from the ratio of radioactivity in the medium to that of precipitated cell fraction.

AEBS [15] = molecular target: T1, AEBS; assay: Binding to the AEBS in HMCLs; set-up: endogenous in cells; host or cells: RPMI 8226 and LP-1 human multiple myeloma cell lines
NCI-H929 = tested on: NCI-H929; set-up: method as in earlier work; conditions: cited from earlier work
MM tumors = tested on: MM tumors; set-up: method as in PMID 20033476, PMID 16753295; conditions: xenografted mice bearing MM tumors; cited from earlier work
U266 = tested on: U266; set-up: method as in earlier work; conditions: cited from earlier work
LP-1 = tested on: LP-1; set-up: method as in earlier work; conditions: cited from earlier work
OPM-2 = tested on: OPM-2; set-up: method as in earlier work; conditions: cited from earlier work
Karpas 620 = tested on: Karpas 620; set-up: method as in earlier work; conditions: cited from earlier work
RPMI 8226 = tested on: RPMI 8226; set-up: method as in earlier work; conditions: cited from earlier work
[16] = RPMI 8226, presence of 500 μM Vit E

Structure (SMILES) | AV (RPMI 8226 cells [4]; RPMI 8226, absence of Vit E) | MLB (RPMI 8226 cells [4]; RPMI 8226, absence of Vit E) | UV (RPMI 8226 cells [4]; RPMI 8226, absence of Vit E) | AV (RPMI 8226 cells [4]; [16]) | MLB (RPMI 8226 cells [4]; [16]) | UV (RPMI 8226 cells [4]; [16]) | Ki (AEBS [5]) [nM] | free sterol accumulated (HMCLs) | Ki (AEBS [8]) [nM] | ChEH activity, conversion of 5,6-EC into CT by TLC (ChEH [9]) | AV (LP-1 cells [13]; LP-1, absence of Vit E) | MLB (LP-1 cells [13]; LP-1, absence of Vit E) | UV (LP-1 cells [13]; LP-1, absence of Vit E) | AV (LP-1 cells [13]; LP-1, presence of 500 μM Vit E) | MLB (LP-1 cells [13]; LP-1, presence of 500 μM Vit E) | UV (LP-1 cells [13]; LP-1, presence of 500 μM Vit E) | affinity for the AEBS (AEBS [15]) | other results
Cl.c1ccc(Cc2ccc(OCCN3CCCC3)cc2)cc1 [PBPE, 1-(2-(4-benzylphenoxy)-ethyl)-pyrrolidin-HCl] | + + (The sign + means that 80 % cells were positive and contained at least 5 vesicles) | + + (The sign + means that 80 % cells were positive and contained at least 5 vesicles) | + (The sign + means that 80 % cells were positive and contained at least 5 vesicles) | + + (The sign + means that 80 % cells were positive and contained at least 5 vesicles) | + + (The sign + means that 80 % cells were positive and contained at least 5 vesicles) | − (otherwise they were considered as negative (-)) | 3.2 ± 2.2 | accumulation zymostenol | 4.2 ± 1.8 | ChEH activity was inhibited | + + (The sign + means that 80 % cells were positive and contained at least 5 vesicles) | + + (The sign + means that 80 % cells were positive and contained at least 5 vesicles) | + (The sign + means that 80 % cells were positive and contained at least 5 vesicles) | + + (The sign + means that 80 % cells were positive and contained at least 5 vesicles) | + + (The sign + means that 80 % cells were positive and contained at least 5 vesicles) | − (otherwise they were considered as negative (-)) | high affinity | cell death (viable cells, MTT assay) (RPMI 8226 and LP-1 cells [1]): cell death that was strictly caspase-independent; 5,6-EC (LP-1 cells [2]; LP-1, absence of Vit E): +; 5,6-EC (LP-1 cells [2]; LP-1, presence of 500 μM Vit E): −; 5,6-EC (RPMI 8226 cells [3]; RPMI 8226, absence of Vit E): +; 5,6-EC (RPMI 8226 cells [3]; [16]): −; Desmosterol (LP-1 cells [6]): 1.2 percent by the weight of total sterol; Zymostenol (LP-1 cells [6]): 31.1 percent by the weight of total sterol; Desmosterol (RPMI 8226 cells [7]): 1.4 percent by the weight of total sterol; Zymostenol (RPMI 8226 cells [7]): 28.7 percent by the weight of total sterol; IC50 (ChEH [10]): 884 ± 32 nM; IC50 (ChEH [11]): 927 ± 24 nM; intracellular free sterol, triacylglycerol (TG) and sphingomyelin (SM) contents (RPMI 8226 and LP-1 cells [12]): increases; rate of long-lived protein degradation (RPMI 8226 and LP-1 cells [14]): stimulated
C[C@]12C[C@H](c3ccc(OCCCCCS(=O)(=O)CCCC(F)(F)C(F)(F)F)cc3)[C@@H]3c4ccc(O)cc4CC[C@H]3[C@@H]1CC[C@@H]2O [RU 58668, 17β-11-[4-[5-[([4],[4],[5],[5],[5]-pentafluoropentyl)-sulfonyl]-pentyloxy]-phenyl]estra-1,3,5(10)-triene,3,17-diol] | + + (The sign + means that 80 % cells were positive and contained at least 5 vesicles) | − − (otherwise they were considered as negative (-)) | − − (otherwise they were considered as negative (-)) | + + (The sign + means that 80 % cells were positive and contained at least 5 vesicles) | − − (otherwise they were considered as negative (-)) | − − (otherwise they were considered as negative (-)) | > 10000 | did not induce free sterol accumulation | > 10000 | CT accumulated | + + (The sign + means that 80 % cells were positive and contained at least 5 vesicles) | − − (otherwise they were considered as negative (-)) | − − (otherwise they were considered as negative (-)) | + + (The sign + means that 80 % cells were positive and contained at least 5 vesicles) | − − (otherwise they were considered as negative (-)) | − − (otherwise they were considered as negative (-)) | no measurable affinity | SERM and SERDs effects on MM cell lines (NCI-H929): Apoptosis; tumor growth (MM tumors): block tumor growth; SERM and SERDs effects on MM cell lines (U266): No response; IC50 (ChEH [9]; read-out: concentration up to which ChEH was not inhibited): > 10000 nM; IC50 (ChEH [10]; LP-1 intact cells, [14C]-5,6-EC 0.6 μM, drugs 1 nM to 10 μM over 24 h, read-out: ChEH IC50): > 10000 nM; SERM and SERDs effects on MM cell lines (LP-1): G1-arrest; IC50 (ChEH [11]; RPMI 8226 intact cells, [14C]-5,6-EC 0.6 μM, drugs 1 nM to 10 μM over 24 h, read-out: ChEH IC50): > 10000 nM; SERM and SERDs effects on MM cell lines (OPM-2): G1-arrest; SERM and SERDs effects on MM cell lines (Karpas 620): No response; SERM and SERDs effects on MM cell lines (RPMI 8226): Apoptosis
